Experimental data from patent US10246712B2, “Genetic or pharmacological reduction of PERK enhances cortical- and hippocampus-dependent cognitive function” (Carmel-Haifa University Economic Corp. Ltd, priority 2015, dated 2019).

Key:
PERK = target: T1, PERK (Rattus norvegicus, UniProt Q9Z1Z1); format: in vivo
T1 construct: the PERK shRNA lentivirus was stereotacticaly injected to the IC of adult rats; from tissue; host or cells: insular cortex of adult male Wistar Hola rats, in vivo
T1 sequence (Q9Z1Z1 28-1108): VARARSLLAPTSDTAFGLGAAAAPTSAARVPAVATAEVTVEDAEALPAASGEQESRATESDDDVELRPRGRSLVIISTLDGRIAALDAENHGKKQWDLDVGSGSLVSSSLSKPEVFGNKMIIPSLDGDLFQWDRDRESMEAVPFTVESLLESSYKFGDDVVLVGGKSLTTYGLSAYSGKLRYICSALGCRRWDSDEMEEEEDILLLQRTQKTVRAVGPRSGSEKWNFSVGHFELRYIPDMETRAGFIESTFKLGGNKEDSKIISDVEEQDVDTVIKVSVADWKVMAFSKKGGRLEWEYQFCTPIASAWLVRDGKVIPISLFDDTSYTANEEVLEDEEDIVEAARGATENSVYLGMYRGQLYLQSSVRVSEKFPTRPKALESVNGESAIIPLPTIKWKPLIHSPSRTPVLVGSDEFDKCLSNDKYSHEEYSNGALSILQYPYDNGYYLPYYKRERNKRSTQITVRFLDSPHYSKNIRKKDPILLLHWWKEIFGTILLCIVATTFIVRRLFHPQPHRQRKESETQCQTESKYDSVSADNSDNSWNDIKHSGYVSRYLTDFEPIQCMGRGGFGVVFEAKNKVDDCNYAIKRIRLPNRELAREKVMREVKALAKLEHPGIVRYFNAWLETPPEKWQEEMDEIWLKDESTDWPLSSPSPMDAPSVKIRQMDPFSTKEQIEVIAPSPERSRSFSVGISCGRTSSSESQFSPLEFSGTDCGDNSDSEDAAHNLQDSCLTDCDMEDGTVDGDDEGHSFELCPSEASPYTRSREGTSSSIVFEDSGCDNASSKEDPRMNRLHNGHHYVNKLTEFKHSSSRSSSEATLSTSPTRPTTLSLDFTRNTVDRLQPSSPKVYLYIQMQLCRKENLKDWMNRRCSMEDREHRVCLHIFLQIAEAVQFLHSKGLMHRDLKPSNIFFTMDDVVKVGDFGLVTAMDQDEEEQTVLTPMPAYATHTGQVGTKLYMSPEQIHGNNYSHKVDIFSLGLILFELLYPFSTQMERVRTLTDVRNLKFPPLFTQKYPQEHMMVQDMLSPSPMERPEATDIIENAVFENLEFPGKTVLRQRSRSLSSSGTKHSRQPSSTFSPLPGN
Protocol: Briefly, the rats were anesthetized by administration of equithesin (0.3 ml/100 g), comprising 2.12% (w/v) MgSO4, 10% (v/v) ethanol, 39.1% (v/v) propyleneglycol, 0.98% (w/v) sodium pentobarbital, and 4.2% (w/v) chloral hydrate. They were restrained in a stereotactic frame (Steolting Europe, Dublin-Ireland) and stainless steel guide cannulae (23-gauge) were bilaterally implanted into the insular cortex, angled at (with reference to bregma), anteroposterior=+1.2 mm, lateral±5.5 mm, and ventral 5.0 mm (1 mm ahead of injecting cannula). Two skull screws were inserted into the skull, and acrylic dental cement was applied to secure the cannulae in position. A 28 gauge stylus was inserted into each guide cannula to prevent clogging. The rats were allowed a week in individual cages to recover from the surgery, before the experimental manipulation. PERK inhibitor GSK2606414 (Axten et al., 2012) was dissolved in DMSO and further diluted in saline to a final DMSO concentration of 0.5%. A total of 1 μl of 100 nM GSK2606414 or vehicle was infused bilaterally. For microinfusion, the stylus was removed from the guide cannula and a 28 gauge injection cannula was carefully inserted, to extend 1.0 mm beyond the tip of the guide cannula. The injection cannula was connected via PE20 tubing to a Hamilton syringe (Hamilton) driven by a CMA/100 microinjection pump (Carnegie Medicine), to provide an injection rate of 1 μl/min. After 1 min of infusion, the injection cannula was kept in the guide cannula for an additional minute to minimize dragging of infused solutes along the injection tract. Locations of cannula were verified in 30 μm coronal sections.
Aversion to the novel taste, 0.3% NaCl was measured as described below.

pyramidal CA1 neurons = test: Whole cell patch clamp recording of intrinsic neuronal properties; format: cell-based, mouse; details: vs vehicle
Protocol: Mice were sacrificed by cervical dislocation and three hundred micrometer coronal brain slices were cut with a Campden-1000 Vibrotome. Slices were cut in ice-cold cutting solution containing (in mM) 110 sucrose, 60 NaCl, 3 KCl, 1.25 NaH2PO4, 28 NaHCO3, 0.5 CaCl2, 7 MgCl2, 5 glucose, and 0.6 ascorbate and recovered for 30 min at 37° C. in artificial cerebrospinal fluid (ACSF) containing (in mM) 125 NaCl, 2.5 KCl, 1.25 NaH2PO4, 25 NaHCO3, 25 D-glucose, 2 CaCl2, and 1 MgCl2, followed by additional recovery for 30 min in room-temperature ACSF. After initial recovery, slices were placed in a submerged chamber and maintained at 34° C. in ACSF (2 ml/min). All solutions were constantly carboxygenated with 95% O2+5% CO2.
Cells infected with PERK-shRNA- or scrambled sequence PERK shRNA (PERK-Scr)-containing AAV were identified by green fluorescence. Recordings were amplified by multiclamp 700B and digitized by Digidata 1440 (Molecular Devices). The recording electrode was pulled from a borosilicate glass pipette (3-5 MΩ) using an electrode puller (P-1000; Sutter Instruments) and filled with a K-gluconate-based internal solution containing (in mM) 120 K-gluconate, 20 KCl, 10 HEPES, 2 MgCl2, 4 Na2ATP, 0.5 TrisGTP, 14 phosphocreatine, osmolarity 290 mOsm, and pH 7.3. The recording glass pipettes were patched onto the soma region of pyramidal cells. Voltages for liquid junction potential (+10 mV) were not corrected online. All current-clamp recordings were low-pass filtered at 10 kHz and sampled at 50 kHz. Series resistance was compensated and only series resistance <20 MΩ was included in the data set. Pipette capacitance was ˜99% compensated. The method for measuring active intrinsic properties was based on a modified version of Kaphzan H et al., 2013. For recordings with GSK2606414, 100 nM inhibitor was applied in the pipette solution, and recordings were performed as described above.
Resting membrane potential (RMP) was measured 5 min after the seal was ruptured. The I-V (current-voltage) relationship used to calculate number of action potentials obtained by injection of 1 s pulses (−150 to +300 pA in 50 pA increments).
Input resistance (Rin) was calculated from the voltage response to a hyperpolarizing current pulse (−150 pA). For measurements of a single AP, after initial assessment of the current, which was required to induce an action potential at 15 ms from the start of the current injection with large steps (50 pA), we injected a series of brief depolarizing currents for 10 ms in steps of 10 pA increments. The first action potential that appeared on the 5 ms time point was analyzed. A curve of dV/dt was created for that trace, and the 30 V/s point in the rising slope of the action potential was considered as threshold (Kaphzan et al., 2013).
AP amplitude was measured from the equipotential point of the threshold to the spike peak, while AP duration was measured at the point of half-amplitude of the spike. The mAHP (medium after-hyperpolarization) was measured using prolonged (3 s), high-amplitude (3 nA) somatic current injections to initiate time-locked action potential trains of 50 Hz frequency and duration (10-50 Hz, 1 or 3 s) in pyramidal cells. These action potential trains generated prolonged (˜20 s) AHPs, the amplitudes and integrals of which increased with the number of action potentials in the spike train. AHP was measured from the equipotential point of the threshold to the anti-peak of the same spike (Gulledge et al., 2013).
Series resistance, input resistance, and membrane capacitance were monitored during the entire experiment. Changes in these parameters (which were monitored throughout the entire duration of the experiment) greater than 10% were criteria for exclusion of data. AU experimental analyses were performed in a blind manner; the identity of the mouse from which neurons were recorded (PERK shRNA or scrambled) was not known to the person conducting the experiments and measurements.

For `Cn1cc(-c2ccc3c(c2)CCN3C(=O)Cc2cccc(C(F)(F)F)c2)c2c(N)ncnc21` [GSK2606414, 7-methyl-5-(1-{[3-(trifluoromethyl)phenyl]acetyl}-2,3-dihydro-1H-indol-5-yl)-7H-pyrrolo[2,3-d]pyrimidin-4-amine], the “aversion index (CTA memory)” value (PERK; 0.3% NaCl + 0.075 M LiCl i.p., 1 μl 100 nM into IC 20 min prior to novel taste, n=8) was 72%±3.5, the “extinction of CTA” value (PERK; single injection of 100 nM into IC during CTA) was “not affected” and the total drinking volumes (PERK; vs vehicle group throughout the behavioral procedure, data not shown) was “similar”. For the same compound, the “action potential (AP) frequency” value (pyramidal CA1 neurons; 100 nM in pipette solution, acute hippocampal slices, increased current steps) was “increased”, the AP amplitude (pyramidal CA1 neurons; 100 nM in pipette solution) was “longer” and the AP mid width (pyramidal CA1 neurons; 100 nM in pipette solution) was “wider”. For the same compound, the AP threshold (pyramidal CA1 neurons; 100 nM in pipette solution) was “hyperpolarized”, the input resistance (pyramidal CA1 neurons; 100 nM in pipette solution) was “Neither resting membrane potential (RMP) nor input resistance was changed” and the “resting membrane potential (RMP)” value (pyramidal CA1 neurons; 100 nM in pipette solution) was “Neither resting membrane potential (RMP) nor input resistance was changed”. The mAHP (pyramidal CA1 neurons; 100 nM, acute hippocampal slices) was “significantly reduced”.
